Measured values: US9181266B2, “2-piperidin-1-yl-acetamide compounds for use as tankyrase inhibitors” (NOVARTIS AG, priority 2011, dated 2015)

Experiments:
Human PARP1 = Human PARP1 (Homo sapiens (Human), UniProt P09874); test: PARP1 autoparsylation assay (LC/MS detection of nicotinamide); format: biochemical; settings: 20 nM enzyme, 250 μM β-NAD+, 60 min
Protocol: (§1) The autoparsylation activity of the TNKS 1/2 or PARP1/2 enzymes was measured by the liquid chromatography-mass spectrometry (LC/MS) detection of nicotinamide as readout. Compound activity in inhibiting the TNKS and PARP autoparsylation was evaluated by IC50 measurements.

PARP2 = PARP2 (Mus musculus (Mouse), UniProt O88554); test: PARP2 autoparsylation assay (LC/MS detection of nicotinamide); format: biochemical; settings: 20 nM enzyme, 250 μM β-NAD+, 60 min
Chain of PARP2 (O88554 whole entry): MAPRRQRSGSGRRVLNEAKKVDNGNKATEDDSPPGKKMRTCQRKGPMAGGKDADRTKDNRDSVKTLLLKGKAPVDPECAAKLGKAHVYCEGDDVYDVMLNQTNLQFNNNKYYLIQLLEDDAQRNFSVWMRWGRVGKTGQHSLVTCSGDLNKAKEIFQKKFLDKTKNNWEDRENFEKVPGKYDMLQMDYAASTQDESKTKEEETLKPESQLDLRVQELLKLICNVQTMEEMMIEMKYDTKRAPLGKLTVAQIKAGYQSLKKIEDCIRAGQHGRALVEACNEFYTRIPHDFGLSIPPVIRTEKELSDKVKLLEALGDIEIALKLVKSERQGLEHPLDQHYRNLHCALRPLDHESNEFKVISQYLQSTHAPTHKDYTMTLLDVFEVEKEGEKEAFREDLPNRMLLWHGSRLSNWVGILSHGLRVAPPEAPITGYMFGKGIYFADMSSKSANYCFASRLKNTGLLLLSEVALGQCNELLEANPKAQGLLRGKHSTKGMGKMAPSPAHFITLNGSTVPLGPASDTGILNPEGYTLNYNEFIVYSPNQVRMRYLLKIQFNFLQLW
Protocol: as §1

[1] = system: Non-small lung cancer ABC-1 cells; test: Cellular proliferation assay (CellTiter-Glo); format: cell-based; settings: Homo sapiens, 72 h; ABC-1 cells, 3 days of compound treatment; read-out: ABC-1 IC50
Protocol: Cellular Proliferation Assay to Determine Compound Inhibition of Cancer Cell Growth
Viable cells were measured after 3 days of compound treatment using the CellTiter-Glo assay (Promega, G7570). Assay was performed following the manufacture protocol.

[2] = system: Axin2 protein in SW480 cells; test: Cellular ELISA assay of Axin2 protein stabilization; format: cell-based; settings: Homo sapiens, 24 hrs, read-out: Axin AC50
How it was run: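 SW480 colorectal cells seeded overnight, treated with compound, then lysed. Axin2 in lysates measured by sandwich ELISA: anti-Axin2 capture antibody coated at 1 μg/ml (pH 9.2), lysate 2 h at room temperature, biotinylated anti-Axin2 detection 2 h, then streptavidin-HRP 30 min.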

[3] = system: Wnt ligand-induced signaling in HEK293 cells; test: Wnt-responsive Super-TOpFlash (STF) luciferase reporter gene assay; format: cell-based; settings: Homo sapiens, Wnt3A condition medium
How it was run: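 HEK293 cells (8000/well, 5% FBS medium) treated with 20% mouse L-cell Wnt3A conditioned medium plus compounds in 10-point serial dilution; luciferase read next day. Inhibition calculated relative to Wnt3A-induced signal without compound and background without Wnt3A CM or compound.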

[4] = biological target: tankyrase 2 protein PARP domain, TNKS2P (Homo sapiens (Human), UniProt Q9H2K2); test: TNKS2 autoparsylation assay (LC/MS detection of nicotinamide); settings: read-out: TNKS2 AP IC50, 20 nM enzyme, 250 μM β-NAD+, 60 min
Chain of tankyrase 2 protein PARP domain, TNKS2P (Q9H2K2 959-1164): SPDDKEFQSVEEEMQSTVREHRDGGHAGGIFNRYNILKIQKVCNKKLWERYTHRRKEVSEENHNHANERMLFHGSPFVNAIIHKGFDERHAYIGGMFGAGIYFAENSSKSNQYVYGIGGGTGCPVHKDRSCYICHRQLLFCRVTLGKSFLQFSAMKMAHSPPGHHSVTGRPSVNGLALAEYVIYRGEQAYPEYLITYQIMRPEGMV

[5] = biological target: human tankyrase 1 PARP catalytic domain, TNKS1P (Homo sapiens (Human), UniProt O95271); test: TNKS1 autoparsylation assay (LC/MS detection of nicotinamide); settings: read-out: TNKS1 AP IC50, 20 nM enzyme, 250 μM β-NAD+, 60 min
Chain of human tankyrase 1 PARP catalytic domain, TNKS1P (O95271 1112-1317): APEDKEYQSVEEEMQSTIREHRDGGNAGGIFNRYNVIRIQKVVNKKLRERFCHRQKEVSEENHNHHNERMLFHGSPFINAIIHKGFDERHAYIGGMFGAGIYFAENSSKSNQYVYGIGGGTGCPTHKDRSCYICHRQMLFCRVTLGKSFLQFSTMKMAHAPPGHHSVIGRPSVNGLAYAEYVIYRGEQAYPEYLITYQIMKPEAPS
Protocol: Biochemical Assay to Determine Compound Inhibition of TNKS Enzyme Activity
The autoparsylation activity of the TNKS 1/2 or PARP1/2 enzymes was measured by the liquid chromatography-mass spectrometry (LC/MS) detection of nicotinamide as readout. Compound activity in inhibiting the TNKS and PARP autoparsylation was evaluated by IC50 measurements. […] For the background control wells, 10 μL of the 5× quenching solution per well was added prior to the addition of β-NAD^+. The % Inhibition was calculated as: (Control−Sample)/(Control−Background)*100.

Chain of Human PARP1 (P09874 whole entry): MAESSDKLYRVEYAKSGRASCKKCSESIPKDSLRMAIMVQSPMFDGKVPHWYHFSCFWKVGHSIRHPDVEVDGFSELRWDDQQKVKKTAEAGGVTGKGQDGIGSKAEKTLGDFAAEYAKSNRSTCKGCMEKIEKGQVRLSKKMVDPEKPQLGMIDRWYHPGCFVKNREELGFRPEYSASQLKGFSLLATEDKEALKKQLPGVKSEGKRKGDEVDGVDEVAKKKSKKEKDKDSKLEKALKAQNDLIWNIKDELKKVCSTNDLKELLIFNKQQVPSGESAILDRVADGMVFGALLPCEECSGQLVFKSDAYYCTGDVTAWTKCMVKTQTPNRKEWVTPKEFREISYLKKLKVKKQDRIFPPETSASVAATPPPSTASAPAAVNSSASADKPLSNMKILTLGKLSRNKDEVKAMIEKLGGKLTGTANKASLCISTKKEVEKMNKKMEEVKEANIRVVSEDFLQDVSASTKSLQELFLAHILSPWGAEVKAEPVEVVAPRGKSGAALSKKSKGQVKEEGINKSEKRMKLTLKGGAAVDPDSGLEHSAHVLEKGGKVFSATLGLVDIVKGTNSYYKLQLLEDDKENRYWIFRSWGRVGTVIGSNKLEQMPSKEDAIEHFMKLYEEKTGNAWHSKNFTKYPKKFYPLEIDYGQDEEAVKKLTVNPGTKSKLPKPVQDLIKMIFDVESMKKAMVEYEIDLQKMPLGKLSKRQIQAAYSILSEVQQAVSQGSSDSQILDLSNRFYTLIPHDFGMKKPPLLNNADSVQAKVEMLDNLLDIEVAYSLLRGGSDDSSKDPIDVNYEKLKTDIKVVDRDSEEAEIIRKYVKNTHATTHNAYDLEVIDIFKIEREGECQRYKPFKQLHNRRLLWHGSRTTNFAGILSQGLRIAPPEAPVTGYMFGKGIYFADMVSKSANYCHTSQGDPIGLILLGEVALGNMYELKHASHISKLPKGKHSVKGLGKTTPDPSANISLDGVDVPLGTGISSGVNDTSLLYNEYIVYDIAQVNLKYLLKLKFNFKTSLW

SMILES	IC50 (Human PARP1)	IC50 (PARP2)	IC50 [1]	AC50 [2]	IC50 [3]	IC50 [4]	IC50 [5]
O=C(CN1CCC(C(=O)c2ccc(OCC3CCC3)cc2)CC1)NCc1nc2c(c(=O)[nH]1)COCC2 [Example 86, 2-[4-(4-Cyclobutylmethoxy-benzoyl)-piperidin-1-yl]-N-(4-oxo-3,5,7,8-tetrahydro-4H-pyrano[4,3-d]pyrimidin-2-ylmethyl)-acetamide]	2050 ± 370 nM	885 ± 37 nM	41 nM	29 ± 8 nM	820 ± 410 nM	12 ± 1 nM	30 ± 3 nM
CC(c1ccc(F)cc1F)N(Cc1nc2c(c(=O)[nH]1)COCC2)C(=O)CN1CCC(C(=O)c2ccc(F)cc2)CC1 (centres unmarked) [Example 37, N-(1-(2,4-Difluorophenyl)ethyl)-2-(4-(4-fluorobenzoyl)piperidin-1-yl)-N-((4-oxo-4,5,7,8-tetrahydro-3H-pyrano[4,3-d]pyrimidin-2-yl)methyl)acetamide]	> 19000 nM	> 19000 nM	510 nM	960 ± 520 nM	96 ± 19 nM	39.5 ± 7.8 nM	155 ± 34 nM
Cc1ccc(C(=O)C2CCN(CC(=O)NCc3nc4c(c(=O)[nH]3)COCC4)CC2)cc1 [Example 83, 2-[4-(4-Methyl-benzoyl)-piperidin-1-yl]-N-(4-oxo-3,5,7,8-tetrahydro-4H-pyrano[4,3-d]pyrimidin-2-ylmethyl)-acetamide]	8300 ± 3000 nM	2300 ± 360 nM	> 10000 nM	> 10000 nM	> 10000 nM	18 ± 2 nM	64 nM
COc1ccc(C(=O)C2CCN(CC(=O)NCc3nc4c(c(=O)[nH]3)CCC4)CC2)cc1 [Example 11, 2-(4-(4-Methoxybenzoyl)piperidin-1-yl)-N-((4-oxo-4,5,6,7-tetrahydro-3H-cyclopenta[d]pyrimidin-2-yl)methyl)acetamide]	17900 ± 1800 nM	4620 ± 20 nM	18 nM	15 ± 4 nM	3 ± 1 nM	110 ± 140 nM	28.5 ± 3.5 nM
O=C(c1ccc(F)cc1)C1CCN(CC(=O)N(Cc2nc3c(c(=O)[nH]2)COCC3)C[C@H]2CCCO2)CC1 [Example 29, (R)-2-(4-(4-Fluorobenzoyl)piperidin-1-yl)-N-((4-oxo-4,5,7,8-tetrahydro-3H-pyrano[4,3-d]pyrimidin-2-yl)methyl)-N-((tetrahydrofuran-2-yl)methyl)acetamide]	> 19000 nM	> 19000 nM	1430 nM	990 ± 220 nM	79 ± 80 nM	38 ± 1 nM	148 ± 10 nM
C[C@H](c1ccc(F)cc1)N(Cc1nc2c(c(=O)[nH]1)COCC2)C(=O)CN1CCC(C(=O)c2ccc(F)cc2)CC1 [Example 36, (R)-2-(4-(4-Fluorobenzoyl)piperidin-1-yl)-N-(1-(4-fluorophenyl)ethyl)-N-((4-oxo-4,5,7,8-tetrahydro-3H-pyrano[4,3-d]pyrimidin-2-yl)methyl)acetamide]	> 19000 nM	> 19000 nM	2630 nM	1850 ± 310 nM	127 ± 47 nM	25 ± 7 nM	104 ± 28 nM
O=C(CN1CCC(C(=O)c2ccc3c(c2)CCO3)CC1)NCc1nc2c(c(=O)[nH]1)COCC2 [Example 91, 2-[4-(2,3-Dihydro-benzofuran-5-carbonyl)-piperidin-1-yl]-N-(4-oxo-3,5,7,8-tetrahydro-4H-pyrano[4,3-c]pyrimidin-2-ylmethyl)-acetamide]	16700 ± 400 nM	4530 ± 70 nM	116 nM	53 ± 25 nM	10 ± 7 nM	20 nM	40 ± 10 nM
O=C(CN1CCC(C(=O)c2ccc(OCCC3CC3)cc2)CC1)NCc1nc2c(c(=O)[nH]1)COCC2 [Example 89, 2-{4-[4-(2-Cyclopropyl-ethoxy)-benzoyl]-piperidin-1-yl}-N-(4-oxo-3,5,7,8-tetrahydro-4H-pyrano[4,3-d]pyrimidin-2-ylmethyl)-acetamide]	1750 ± 20 nM	920 ± 340 nM	87 nM	52 ± 2 nM	17 ± 4 nM	12 ± 2 nM	21 ± 2 nM
COCCOc1ccc(C(=O)C2CCN(CC(=O)NCc3nc4c(c(=O)[nH]3)COCC4)CC2)cc1 [Example 88, 2-{4-[4-(2-Methoxy-ethoxy)-benzoyl]-piperidin-1-yl}-N-(4-oxo-3,5,7,8-tetrahydro-4H-pyrano[4,3-d]pyrimidin-2-ylmethyl)-acetamide]	6800 ± 2000 nM	2370 ± 520 nM	87 nM	69 ± 7 nM	21 ± 5 nM	6 nM	26 ± 1 nM
CC[C@H](C)N(Cc1nc2c(c(=O)[nH]1)COCC2)C(=O)CN1CCC(C(=O)c2ccc(F)cc2)CC1 [Example 31, (S)—N-sec-Butyl-2-(4-(4-fluorobenzoyl)piperidin-1-yl)-N-((4-oxo-4,5,7,8-tetrahydro-3H-pyrano[4,3-d]pyrimidin-2-yl)methyl)acetamide]	> 19000 nM	> 19000 nM	630 ± 400 nM	1100 ± 180 nM	37 ± 9 nM	13 ± 1 nM	38 ± 3 nM
COc1ccc(CN(Cc2nc3c(c(=O)[nH]2)COCC3)C(=O)CN2CCC(C(=O)c3ccc(F)cc3)CC2)cc1 [Example 16, 2-(4-(4-Fluorobenzoyl)piperidin-1-yl)-N-(4-methoxybenzyl)-N-((4-oxo-4,5,7,8-tetrahydro-3H-pyrano[4,3-d]pyrimidin-2-yl)methyl)acetamide]	> 19000 nM	> 19000 nM	340 nM	587 ± 87 nM	49 ± 43 nM	15 ± 2 nM	66 ± 4 nM
O=C(c1ccc(OC(F)(F)F)cc1)C1CCN(CC(=O)N(Cc2nc3c(c(=O)[nH]2)COCC3)CC(F)F)CC1 [Example 71, N-(2,2-Difluoro-ethyl)-N-(4-oxo-3,5,7,8-tetrahydro-4H-pyrano[4,3-d]pyrimidin-2-ylmethyl)-2-[4-(4-trifluoromethoxy-benzoyl)-piperidin-1-yl]-acetamide]	> 19000 nM	11760 ± 50 nM	100 nM	58 ± 12 nM	17.5 ± 6.6 nM	15 ± 1 nM	43 ± 1 nM
O=C(c1ccc(F)cc1)C1CCN(CC(=O)N(Cc2nc3c(c(=O)[nH]2)COCC3)Cc2ccc(F)cc2F)CC1 [Example 40, N-(2,4-Difluorobenzyl)-2-(4-(4-fluorobenzoyl)piperidin-1-yl)-N-((4-oxo-4,5,7,8-tetrahydro-3H-pyrano[4,3-d]pyrimidin-2-yl)methyl)acetamide]	> 19000 nM	> 19000 nM	520 ± 14 nM	431 ± 40 nM	28 ± 4 nM	14 ± 1 nM	77 ± 5 nM
O=C(c1ccc(F)cc1)C1CCN(CC(=O)N(Cc2nc3c(c(=O)[nH]2)COCC3)Cc2nc3ccccc3s2)CC1 [Example 17, N-(Benzo[d]thiazol-2-ylmethyl)-2-(4-(4-fluorobenzoyl)piperidin-1-yl)-N-((4-oxo-4,5,7,8-tetrahydro-3H-pyrano[4,3-d]pyrimidin-2-yl)methyl)acetamide]	> 19000 nM	> 19000 nM	420 nM	125 ± 18 nM	49 ± 37 nM	18 ± 1 nM	73 ± 3 nM
CC(C)Oc1ccc(C(=O)C2CCN(CC(=O)NCc3nc4c(c(=O)[nH]3)COCC4)CC2)cc1 [Example 3, 2-[4-(4-Isopropoxy-benzoyl)-piperidin-1-yl]-N-(4-oxo-3,5,7,8-tetrahydro-4H-pyrano[4,3-c]pyrimidin-2-ylmethyl)-acetamide]	5630 ± 730 nM	2100 ± 240 nM	105 nM	62 ± 16 nM	23 ± 2 nM	14 ± 1 nM	35 ± 9 nM
COc1ccc(C(=O)C2CCN(CC(=O)NCc3nc4c(c(=O)[nH]3)COCC4)CC2)cc1 [Example 67, 2-(4-(4-Methoxybenzoyl)piperidin-1-yl)-N-((4-oxo-4,5,7,8-tetrahydro-3H-pyrano[4,3-d]pyrimidin-2-yl)methyl)acetamide]	10000 ± 3200 nM	3640 ± 630 nM	45 nM	16 ± 3 nM	5.3 ± 4.1 nM	12 ± 2 nM	28 ± 6 nM
O=C(c1ccc(F)cc1)C1CCN(CC(=O)N(Cc2ccc(F)cc2)Cc2nc3c(c(=O)[nH]2)COCC3)CC1 [Example 15, 2-(4-(4-Fluorobenzoyl)piperidin-1-yl)-N-(4-fluorobenzyl)-N-((4-oxo-4,5,7,8-tetrahydro-3H-pyrano[4,3-d]pyrimidin-2-yl)methyl)acetamide]	> 19000 nM	> 19000 nM	540 nM	804 ± 91 nM	101 ± 74 nM	32 ± 1 nM	138 ± 1 nM
